The record followed here is the SangsterLogP compilation.

A word on the logP: it is a log measure of how a compound divides between an organic and an aqueous phase. Lower therefore signals a more hydrophilic compound. For orientation: logD means the decadic logarithm of the distribution of all forms, ionised or not, between an organic phase and buffer at a given pH. Read a low logD as a more hydrophilic compound.

The nature of one series: method code SF, from DOI: 10.1016/j.ejps.2004.08.007, PMID: 15567286.
Settings: not given
As to `O=Cc1ccc(C(=O)O)cc1`, the logP was determined as 1.52.

A further series is described as follows: method code SF-HPLC, from DOI: 10.1016/j.ejps.2004.08.007, PMID: 15567286. The conditions noted are these: pH 7.4.
`CCCCCCCCOC(=O)Nc1cc[nH]c(=O)n1` yielded a logD of 3.3.

`CC(C)(C)COC(=O)Nc1cc[nH]c(=O)n1` displayed a logD of 1.5.

For the molecule `O=C(Nc1cc[nH]c(=O)n1)OC12CC3CC(CC(C3)C1)C2`, the logD came to 2.9.

The molecule `O=C(Nc1cc[nH]c(=O)n1)OCc1ccccc1` yielded a log distribution coefficient (logD) of 1.3.

`COC(=O)Nc1cc[nH]c(=O)n1` registered a pH-dependent lipophilicity (logD) of -0.55.

Molecule `CC(C)COC(=O)Nc1cc[nH]c(=O)n1` returned a pH-dependent lipophilicity (logD) of 1.1.

For the molecule `CCOC(=O)Nc1cc[nH]c(=O)n1`, the logD is -0.09.

Molecule `CCCCOC(=O)Nc1cc[nH]c(=O)n1` came in with a log distribution coefficient (logD) of 1.1.

On to `CCCCCCOC(=O)Nc1cc[nH]c(=O)n1`, for which the pH-dependent lipophilicity (logD) came to 2.3.
